# Where two headings read alike, the source gives them in different places.
# Legend:
# [1] = target: T1, full-length elephant shark GR (Callorhinchus milii, UniProt V9KGN8); assay: transactivation assay, MMTV-luciferase reporter, HEK293 cells; type: cell-based
# T1 sequence (V9KGN8 1-704): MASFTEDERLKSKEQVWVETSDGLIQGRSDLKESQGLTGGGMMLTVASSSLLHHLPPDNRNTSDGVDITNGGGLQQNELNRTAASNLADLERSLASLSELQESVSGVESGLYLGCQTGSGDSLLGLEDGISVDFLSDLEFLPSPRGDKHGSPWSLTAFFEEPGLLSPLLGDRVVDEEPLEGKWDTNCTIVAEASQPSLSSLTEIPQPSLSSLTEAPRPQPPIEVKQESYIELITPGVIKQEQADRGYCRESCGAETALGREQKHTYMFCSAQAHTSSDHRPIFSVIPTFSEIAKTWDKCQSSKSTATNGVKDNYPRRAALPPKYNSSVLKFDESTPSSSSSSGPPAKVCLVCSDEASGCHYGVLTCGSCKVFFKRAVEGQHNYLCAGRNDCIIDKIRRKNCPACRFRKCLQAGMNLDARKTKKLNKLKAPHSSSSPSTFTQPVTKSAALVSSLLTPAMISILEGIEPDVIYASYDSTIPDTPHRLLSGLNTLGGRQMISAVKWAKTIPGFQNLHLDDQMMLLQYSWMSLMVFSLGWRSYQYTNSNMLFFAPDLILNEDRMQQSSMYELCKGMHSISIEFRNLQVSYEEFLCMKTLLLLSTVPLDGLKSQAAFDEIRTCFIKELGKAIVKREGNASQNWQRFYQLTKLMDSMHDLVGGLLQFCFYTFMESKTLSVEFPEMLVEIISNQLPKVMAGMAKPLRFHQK
# [2] = system: Elephant shark Chimera GR-NTD+MR-DBD-hinge-LBD; conditions: agonist
# [3] = target: truncated elephant shark MR (Elephant shark MR-DBD-hinge-LBD) (Callorhinchus milii, UniProt A0A4W3I5J5); assay: cell-based
# [4] = target: T2, truncated elephant shark GR (Elephant shark GR-DBD-hinge-LBD) (Callorhinchus milii, UniProt V9KGN8); assay: cell-based; design: species or system HEK293
# T2 sequence (V9KGN8 346-704 limits assumed): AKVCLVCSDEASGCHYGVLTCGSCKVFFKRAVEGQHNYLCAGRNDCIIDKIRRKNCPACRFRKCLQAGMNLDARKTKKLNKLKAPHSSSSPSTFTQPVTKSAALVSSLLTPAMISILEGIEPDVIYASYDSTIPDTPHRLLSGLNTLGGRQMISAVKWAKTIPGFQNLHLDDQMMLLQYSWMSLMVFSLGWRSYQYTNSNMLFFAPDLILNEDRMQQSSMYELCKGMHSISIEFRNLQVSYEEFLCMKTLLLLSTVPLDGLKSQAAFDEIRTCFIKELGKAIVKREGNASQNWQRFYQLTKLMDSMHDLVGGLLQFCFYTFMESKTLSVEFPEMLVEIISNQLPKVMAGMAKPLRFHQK
# [5] = target: T1, full-length elephant shark GR; assay: cell-based; design: species or system HEK293
# [6] = target: T3, truncated elephant shark MR (Elephant shark MR-DBD-hinge-LBD) (Callorhinchus milii, UniProt A0A4W3I5J5); assay: cell-based; design: species or system HEK293
# T3 sequence (A0A4W3I5J5 575-956 limits assumed): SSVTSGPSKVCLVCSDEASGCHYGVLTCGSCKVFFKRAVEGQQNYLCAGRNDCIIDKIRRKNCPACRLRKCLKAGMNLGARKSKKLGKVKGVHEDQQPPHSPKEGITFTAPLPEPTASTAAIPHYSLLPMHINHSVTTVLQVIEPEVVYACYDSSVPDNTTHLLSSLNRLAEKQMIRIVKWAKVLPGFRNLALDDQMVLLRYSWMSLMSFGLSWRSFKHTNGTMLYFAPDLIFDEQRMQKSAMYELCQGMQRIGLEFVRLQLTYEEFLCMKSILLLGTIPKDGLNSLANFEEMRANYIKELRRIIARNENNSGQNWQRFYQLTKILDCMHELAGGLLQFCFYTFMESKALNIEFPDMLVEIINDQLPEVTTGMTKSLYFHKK
# [7] = target: T4, full-length elephant shark MR (Callorhinchus milii, UniProt A0A4W3I5J5); assay: cell-based; design: species or system HEK293
# T4 sequence (A0A4W3I5J5 1-956): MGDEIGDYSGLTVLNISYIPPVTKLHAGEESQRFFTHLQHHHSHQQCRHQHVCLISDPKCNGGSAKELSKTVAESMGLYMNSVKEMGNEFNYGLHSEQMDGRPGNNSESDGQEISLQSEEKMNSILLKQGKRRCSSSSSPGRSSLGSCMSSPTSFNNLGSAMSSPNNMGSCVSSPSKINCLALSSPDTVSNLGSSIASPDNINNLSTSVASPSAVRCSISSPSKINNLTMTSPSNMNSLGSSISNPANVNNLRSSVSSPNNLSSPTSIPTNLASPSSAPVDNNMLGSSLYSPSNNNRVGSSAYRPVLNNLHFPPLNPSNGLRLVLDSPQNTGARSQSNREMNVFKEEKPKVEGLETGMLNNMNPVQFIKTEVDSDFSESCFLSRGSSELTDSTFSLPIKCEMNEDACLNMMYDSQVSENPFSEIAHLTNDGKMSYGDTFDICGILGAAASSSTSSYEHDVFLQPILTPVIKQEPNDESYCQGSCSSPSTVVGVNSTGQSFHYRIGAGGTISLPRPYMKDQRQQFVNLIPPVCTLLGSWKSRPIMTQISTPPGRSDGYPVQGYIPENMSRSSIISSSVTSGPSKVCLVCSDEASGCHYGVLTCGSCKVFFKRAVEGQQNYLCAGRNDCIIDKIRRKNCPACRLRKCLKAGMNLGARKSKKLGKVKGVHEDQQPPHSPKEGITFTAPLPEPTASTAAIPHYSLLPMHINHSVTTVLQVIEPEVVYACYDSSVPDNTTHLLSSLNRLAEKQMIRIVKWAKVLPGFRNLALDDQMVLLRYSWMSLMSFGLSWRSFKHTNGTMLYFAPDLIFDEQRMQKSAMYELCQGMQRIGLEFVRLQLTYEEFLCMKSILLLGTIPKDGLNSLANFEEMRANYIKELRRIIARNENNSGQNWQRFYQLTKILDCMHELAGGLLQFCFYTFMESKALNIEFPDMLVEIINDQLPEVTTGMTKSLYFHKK
# [8] = target: T3, truncated elephant shark MR (Elephant shark MR-DBD-hinge-LBD); assay: cell-based; design: species or system HEK293; remark: listed apart in the source
# [9] = system: Elephant shark Chimera MR-NTD+GR-DBD-hinge-LBD; assay: transactivation assay, MMTV-luciferase reporter, HEK293 cells; type: cell-based, Callorhinchus milii; conditions: agonist
# [10] = target: T5, GAL4-DBD+elephant shark GR-hinge-LBD (Callorhinchus milii, UniProt V9KGN8); assay: cell-based; design: species or system HEK293
# T5 sequence (V9KGN8 422-704 limits assumed): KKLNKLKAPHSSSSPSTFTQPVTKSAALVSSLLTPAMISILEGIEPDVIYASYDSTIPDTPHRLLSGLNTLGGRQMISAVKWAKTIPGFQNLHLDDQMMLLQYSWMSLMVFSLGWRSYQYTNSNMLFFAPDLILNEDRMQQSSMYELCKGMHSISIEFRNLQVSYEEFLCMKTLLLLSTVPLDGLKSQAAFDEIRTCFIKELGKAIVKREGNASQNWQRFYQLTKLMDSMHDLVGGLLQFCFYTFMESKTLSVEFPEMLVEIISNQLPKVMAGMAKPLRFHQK
# [11] = target: T1, full-length elephant shark GR; assay: inhibition of dexamethasone-activated luciferase reporter, HEK293 cells; type: cell-based
# [12] = target: T1, full-length elephant shark GR; assay: luciferase reporter transactivation, HEK293 cells; type: cell-based
# [13] = HEK293, read-out: DOC % Relative Induction, GR
# [14] = HEK293, read-out: DOC % Relative Induction, MR
# [15] = HEK293, read-out: Corticosterone % Relative Induction, GR
# [16] = HEK293, read-out: Corticosterone % Relative Induction, MR
# [17] = HEK293, read-out: Prog % Relative Induction, MR
# [18] = HEK293, read-out: Aldo % Relative Induction, GR
# [19] = HEK293, read-out: Cortisol % Relative Induction, GR
# [20] = HEK293, read-out: Cortisol % Relative Induction, MR
compound,measurement,setting,value
C[C@]12CC[C@H]3[C@@H](CCC4=CC(=O)CC[C@@]43C)[C@@H]1CC[C@@H]2C(=O)CO [11-deoxycorticosterone],EC50,[1],~28 nM
same,EC50,[2],0.03 nM
same,EC50,[3],0.1 nM
same,Emax,[4]; [13],30%
same,Emax,[5]; [13],53%
same,Emax,[6]; [14],77%
same,Emax,[7]; [14],86%
CC(=O)[C@H]1CC[C@H]2[C@@H]3CCC4=CC(=O)CC[C@@H]4[C@H]3CC[C@]12C [19norProg],EC50,[8],0.2 nM
same,Emax,"[7]; HEK293, read-out: 19norProg % Relative Induction, MR",79%
C[C@]12C[C@H](O)[C@H]3[C@@H](CCC4=CC(=O)CC[C@@]43C)[C@@H]1CC[C@@H]2C(=O)CO [corticosterone],EC50,[9],13 nM
same,Emax,[10]; [15],100%
same,Emax,[4]; [15],100%
same,Emax,[5]; [15],100%
same,EC50,[8],0.58 nM
same,Emax,[6]; [16],111%
same,Emax,[7]; [16],88%
CC(=O)[C@H]1CC[C@H]2[C@@H]3CCC4=CC(=O)CC[C@]4(C)[C@H]3CC[C@]12C [progesterone],Emax,[6]; [17],78%
same,Emax,[7]; [17],38%
CC#C[C@]1(O)CC[C@H]2[C@@H]3CCC4=CC(=O)CCC4=C3[C@@H](c3ccc(N(C)C)cc3)C[C@@]21C [RU486],IC50,[11],2.2 nM
same,EC50,[12],8.7 nM
C[C@]12CCC(=O)C=C1CC[C@@H]1[C@@H]2[C@@H](O)C[C@]2(C=O)[C@@H](C(=O)CO)CC[C@@H]12 [aldosterone],EC50,[1],~24 nM
same,Emax,[10]; [18],81%
same,Emax,[4]; [18],109%
same,Emax,[5]; [18],92%
same,EC50,[8],0.26 nM
C[C@]12CCC(=O)C=C1CC[C@@H]1[C@@H]2[C@@H](O)C[C@@]2(C)[C@H]1CC[C@]2(O)C(=O)CO [cortisol],EC50,[1],~35 nM
same,Emax,[4]; [19],112%
same,Emax,[5]; [19],88%
same,EC50,[8],1.1 nM
same,Emax,[6]; [20],117%
same,Emax,[7]; [20],118%

# — article doi:10.1101/822718v2 (biorxiv, 2020)
